Test results taken from ChEMBL document CHEMBL1909046, “DrugMatrix in vitro pharmacology data”.

Legend:
[1] = molecular target: T1, Alpha-1B adrenergic receptor (Rattus norvegicus, UniProt P15823); assay: DRUGMATRIX: Alpha-1B adrenergic receptor radioligand binding (ligand: prazosin); format: cell membranes, Wistar, Liver, Membrane; settings: Not Active = under 50% inhibition at 10 µM
T1 sequence (P15823 whole entry): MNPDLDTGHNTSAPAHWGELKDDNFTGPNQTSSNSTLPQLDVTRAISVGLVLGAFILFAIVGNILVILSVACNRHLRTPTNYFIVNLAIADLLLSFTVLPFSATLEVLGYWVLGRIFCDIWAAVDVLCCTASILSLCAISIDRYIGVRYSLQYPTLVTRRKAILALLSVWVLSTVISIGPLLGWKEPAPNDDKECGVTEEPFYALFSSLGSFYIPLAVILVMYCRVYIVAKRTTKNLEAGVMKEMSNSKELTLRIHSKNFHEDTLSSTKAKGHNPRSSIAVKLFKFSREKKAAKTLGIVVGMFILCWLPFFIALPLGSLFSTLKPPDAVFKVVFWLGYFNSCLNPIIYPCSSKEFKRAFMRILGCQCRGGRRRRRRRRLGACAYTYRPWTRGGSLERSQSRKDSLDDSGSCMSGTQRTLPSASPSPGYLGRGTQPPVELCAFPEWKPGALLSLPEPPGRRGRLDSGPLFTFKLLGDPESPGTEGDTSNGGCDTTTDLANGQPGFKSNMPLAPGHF

[2] = molecular target: Beta-3 adrenergic receptor (Homo sapiens, UniProt P13945); assay: DRUGMATRIX: Adrenergic beta3 radioligand binding (ligand: [125I] Cyanopindolol); format: cell membranes, Membrane; settings: hek293; Not Active = under 50% inhibition at 10 µM
Cytochrome P450 2C9 = Cytochrome P450 2C9 (Homo sapiens, UniProt P11712); settings: bti-tn-5b1-4; note: in other assays of this panel Not Active means under 50% inhibition at 10 µM
Calcitonin receptor = molecular target: T2, Calcitonin receptor (Homo sapiens, UniProt P30988); format: cell membranes, Membrane; settings: t47d; note: in other assays of this panel Not Active means under 50% inhibition at 10 µM
T2 sequence (P30988 whole entry): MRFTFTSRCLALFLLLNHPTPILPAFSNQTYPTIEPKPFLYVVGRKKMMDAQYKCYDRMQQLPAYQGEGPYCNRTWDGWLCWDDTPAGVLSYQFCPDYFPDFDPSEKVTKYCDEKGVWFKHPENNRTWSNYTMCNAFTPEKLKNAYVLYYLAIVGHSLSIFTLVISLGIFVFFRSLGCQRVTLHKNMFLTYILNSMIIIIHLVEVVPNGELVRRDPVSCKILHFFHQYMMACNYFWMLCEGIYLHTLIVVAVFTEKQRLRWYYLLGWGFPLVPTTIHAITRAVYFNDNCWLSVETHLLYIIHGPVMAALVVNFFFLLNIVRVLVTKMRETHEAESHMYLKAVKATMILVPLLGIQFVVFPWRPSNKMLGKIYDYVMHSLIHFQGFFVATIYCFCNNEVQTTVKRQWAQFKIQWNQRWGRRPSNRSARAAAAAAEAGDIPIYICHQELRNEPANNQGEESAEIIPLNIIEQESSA

[3] = DRUGMATRIX: Calcium Channel Type L, Dihydropyridine radioligand binding (ligand: [3H] Nitrendipine); format: cell membranes, Rattus norvegicus, Wistar, Cerebral cortex, Membrane; settings: Not Active = under 50% inhibition at 10 µM
[4] = DRUGMATRIX: Phosphodiesterase PDE3 enzyme inhibition (substrate: [3H]cAMP + cAMP); format: tissue-based, Homo sapiens; settings: platelet; Not Active = under 50% inhibition at 10 µM
[5] = molecular target: Mitogen-activated protein kinase 3 (Homo sapiens, UniProt P27361); assay: DRUGMATRIX: Protein Serine/Threonine Kinase, ERK1 enzyme inhibition (substrate: Myelin Basic Protein); design: species or system Escherichia coli; settings: Not Active = under 50% inhibition at 10 µM
B2 bradykinin receptor = molecular target: T3, B2 bradykinin receptor (Homo sapiens, UniProt P30411); format: cell membranes, Membrane; settings: chem-1; note: in other assays of this panel Not Active means under 50% inhibition at 10 µM
T3 sequence (P30411 whole entry): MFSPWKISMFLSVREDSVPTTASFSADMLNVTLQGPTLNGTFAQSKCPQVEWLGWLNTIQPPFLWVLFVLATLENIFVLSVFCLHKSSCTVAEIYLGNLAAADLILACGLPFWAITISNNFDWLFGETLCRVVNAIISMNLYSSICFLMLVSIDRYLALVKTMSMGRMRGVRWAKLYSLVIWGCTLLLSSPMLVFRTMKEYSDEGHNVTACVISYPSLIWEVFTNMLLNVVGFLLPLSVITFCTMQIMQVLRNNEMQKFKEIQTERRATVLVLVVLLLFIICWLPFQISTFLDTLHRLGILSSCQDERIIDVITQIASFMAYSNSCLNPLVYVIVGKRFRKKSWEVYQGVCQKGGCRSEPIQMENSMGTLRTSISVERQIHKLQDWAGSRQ

[6] = DRUGMATRIX: Tumor Necrosis Factor (TNF), Non-Selective radioligand binding (ligand: [125I] TNF-alpha); format: cell membranes, Membrane; settings: u-937; Not Active = under 50% inhibition at 10 µM

Chain of Mitogen-activated protein kinase 3 (P27361 whole entry): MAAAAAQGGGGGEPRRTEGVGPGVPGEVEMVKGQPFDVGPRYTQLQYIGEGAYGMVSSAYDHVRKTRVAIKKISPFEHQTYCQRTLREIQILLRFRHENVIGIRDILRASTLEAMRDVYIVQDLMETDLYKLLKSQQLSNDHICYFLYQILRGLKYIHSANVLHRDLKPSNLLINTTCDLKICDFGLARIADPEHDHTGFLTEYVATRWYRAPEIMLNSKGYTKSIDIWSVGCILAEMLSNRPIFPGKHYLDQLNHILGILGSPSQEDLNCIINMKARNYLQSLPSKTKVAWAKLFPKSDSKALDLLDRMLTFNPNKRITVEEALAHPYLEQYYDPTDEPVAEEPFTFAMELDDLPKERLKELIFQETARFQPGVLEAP
Chain of Beta-3 adrenergic receptor (P13945 whole entry): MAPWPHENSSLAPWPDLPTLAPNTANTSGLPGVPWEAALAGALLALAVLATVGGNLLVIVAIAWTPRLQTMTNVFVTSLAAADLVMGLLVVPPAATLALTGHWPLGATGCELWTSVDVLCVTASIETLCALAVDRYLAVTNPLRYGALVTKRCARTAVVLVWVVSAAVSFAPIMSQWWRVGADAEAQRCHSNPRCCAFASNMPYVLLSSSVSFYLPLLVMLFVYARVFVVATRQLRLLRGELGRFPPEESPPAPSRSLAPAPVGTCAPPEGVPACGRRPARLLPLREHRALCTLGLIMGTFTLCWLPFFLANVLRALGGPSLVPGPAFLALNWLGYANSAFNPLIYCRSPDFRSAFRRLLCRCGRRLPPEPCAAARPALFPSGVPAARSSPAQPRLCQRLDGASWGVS
Chain of Cytochrome P450 2C9 (P11712 whole entry): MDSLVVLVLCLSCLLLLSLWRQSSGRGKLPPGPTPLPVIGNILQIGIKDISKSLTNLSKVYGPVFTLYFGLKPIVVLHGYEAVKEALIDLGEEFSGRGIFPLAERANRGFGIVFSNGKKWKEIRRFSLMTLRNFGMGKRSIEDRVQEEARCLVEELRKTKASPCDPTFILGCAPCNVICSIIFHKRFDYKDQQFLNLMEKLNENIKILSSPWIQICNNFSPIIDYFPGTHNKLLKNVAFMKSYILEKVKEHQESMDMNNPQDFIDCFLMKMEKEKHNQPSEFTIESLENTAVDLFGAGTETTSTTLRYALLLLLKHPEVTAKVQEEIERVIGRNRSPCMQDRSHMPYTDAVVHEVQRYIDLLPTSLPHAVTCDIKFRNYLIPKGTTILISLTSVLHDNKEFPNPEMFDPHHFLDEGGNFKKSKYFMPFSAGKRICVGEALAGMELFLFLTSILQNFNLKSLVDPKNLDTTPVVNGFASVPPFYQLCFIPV

CC(=O)OCC(=O)[C@@]1(O)CC[C@H]2[C@@H]3CCC4=CC(=O)CC[C@]4(C)[C@H]3C(=O)C[C@@]21C [CORTISONE ACETATE]
Not Active: IC50 [1] | IC50 [2] | IC50 (Cytochrome P450 2C9) | Ki (Cytochrome P450 2C9) | IC50 (Calcitonin receptor) | IC50 [3] | Ki [3] | IC50 [4] | Ki [4] | IC50 [5] | IC50 (B2 bradykinin receptor) | IC50 [6] | Ki [6]

O=c1ccc2ccccc2o1 [COUMARIN]
Not Active: IC50 [1] | IC50 [2] | IC50 (Cytochrome P450 2C9) | Ki (Cytochrome P450 2C9) | IC50 (Calcitonin receptor) | IC50 [3] | Ki [3] | IC50 [4] | Ki [4] | IC50 [5] | IC50 (B2 bradykinin receptor) | IC50 [6] | Ki [6]

COc1ccc2c(c1)[C@]13CCCC[C@@H]1[C@H](C2)N(C)CC3 [DEXTROMETHORPHAN]
Not Active: IC50 [1] | IC50 [2] | IC50 (Cytochrome P450 2C9) | Ki (Cytochrome P450 2C9) | IC50 (Calcitonin receptor) | IC50 [3] | Ki [3] | IC50 [4] | Ki [4] | IC50 [5] | IC50 (B2 bradykinin receptor) | IC50 [6] | Ki [6]

CC(=O)Nc1c(I)c(NC(C)=O)c(I)c(C(=O)O)c1I [DIATRIZOIC ACID]
Not Active: IC50 [1] | IC50 [2] | IC50 (Cytochrome P450 2C9) | Ki (Cytochrome P450 2C9) | IC50 (Calcitonin receptor) | IC50 [3] | Ki [3] | IC50 [4] | Ki [4] | IC50 [5] | IC50 (B2 bradykinin receptor) | IC50 [6] | Ki [6]

COP(=O)(OC)OC=C(Cl)Cl [DICHLORVOS]
Not Active: IC50 [1] | IC50 [2] | IC50 (Cytochrome P450 2C9) | Ki (Cytochrome P450 2C9) | IC50 (Calcitonin receptor) | IC50 [3] | Ki [3] | IC50 [4] | Ki [4] | IC50 [5] | IC50 (B2 bradykinin receptor) | IC50 [6] | Ki [6]

O=C(O)Cc1ccccc1Nc1c(Cl)cccc1Cl [DICLOFENAC]
Not Active: IC50 [1] | IC50 [2] | IC50 (Cytochrome P450 2C9) | Ki (Cytochrome P450 2C9) | IC50 (Calcitonin receptor) | IC50 [3] | Ki [3] | IC50 [4] | Ki [4] | IC50 [5] | IC50 (B2 bradykinin receptor) | IC50 [6] | Ki [6]

C[C@H]1O[C@@H](O[C@H]2[C@@H](O)C[C@H](O[C@H]3[C@@H](O)C[C@H](O[C@H]4CC[C@@]5(C)[C@H](CC[C@@H]6[C@@H]5CC[C@]5(C)[C@@H](C7=CC(=O)OC7)CC[C@]65O)C4)O[C@@H]3C)O[C@@H]2C)C[C@H](O)[C@@H]1O [DIGITOXIN]
Not Active: IC50 [1] | IC50 [2] | IC50 (Cytochrome P450 2C9) | Ki (Cytochrome P450 2C9) | IC50 (Calcitonin receptor) | IC50 [3] | Ki [3] | IC50 [4] | Ki [4] | IC50 [5] | IC50 (B2 bradykinin receptor) | IC50 [6] | Ki [6]

CCN1CC(CCN2CCOCC2)C(c2ccccc2)(c2ccccc2)C1=O (stereo not drawn) [DOXAPRAM]
Not Active: IC50 [1] | IC50 [2] | IC50 (Cytochrome P450 2C9) | Ki (Cytochrome P450 2C9) | IC50 (Calcitonin receptor) | IC50 [3] | Ki [3] | IC50 [4] | Ki [4] | IC50 [5] | IC50 (B2 bradykinin receptor) | IC50 [6] | Ki [6]

Cn1c(=O)c2c(ncn2CC2OCCO2)n(C)c1=O [DOXOFYLLINE]
Not Active: IC50 [1] | IC50 [2] | IC50 (Cytochrome P450 2C9) | Ki (Cytochrome P450 2C9) | IC50 (Calcitonin receptor) | IC50 [3] | Ki [3] | IC50 [4] | Ki [4] | IC50 [5] | IC50 (B2 bradykinin receptor) | IC50 [6] | Ki [6]

COc1cccc2c1C(=O)c1c(O)c3c(c(O)c1C2=O)C[C@@](O)(C(=O)CO)C[C@@H]3O[C@H]1C[C@H](N)[C@H](O)[C@H](C)O1 [DOXORUBICIN]
Not Active: IC50 [1] | IC50 [2] | IC50 (Cytochrome P450 2C9) | Ki (Cytochrome P450 2C9) | IC50 (Calcitonin receptor) | IC50 [3] | Ki [3] | IC50 [4] | Ki [4] | IC50 [5] | IC50 (B2 bradykinin receptor) | IC50 [6] | Ki [6]

COc1cccc2c1C(=O)c1c(O)c3c(c(O)c1C2=O)C[C@@](O)(C(=O)CO)C[C@@H]3O[C@H]1C[C@H](N)[C@@H](O)[C@H](C)O1 [EPIRUBICIN]
Not Active: IC50 [1] | IC50 [2] | IC50 (Cytochrome P450 2C9) | Ki (Cytochrome P450 2C9) | IC50 (Calcitonin receptor) | IC50 [3] | Ki [3] | IC50 [4] | Ki [4] | IC50 [5] | IC50 (B2 bradykinin receptor) | IC50 [6] | Ki [6]

C[C@]12CC[C@@H]3c4ccc(OC(=O)c5ccccc5)cc4CC[C@H]3[C@@H]1CC[C@@H]2O [ESTRADIOL BENZOATE]
Not Active: IC50 [1] | IC50 [2] | IC50 (Cytochrome P450 2C9) | Ki (Cytochrome P450 2C9) | IC50 (Calcitonin receptor) | IC50 [3] | Ki [3] | IC50 [4] | Ki [4] | IC50 [5] | IC50 (B2 bradykinin receptor) | IC50 [6] | Ki [6]

C[C@]12CC[C@@H]3c4ccc(O)cc4CC[C@H]3[C@@H]1CC[C@@H]2O [ESTRADIOL]
Not Active: IC50 [1] | IC50 [2] | IC50 (Cytochrome P450 2C9) | Ki (Cytochrome P450 2C9) | IC50 (Calcitonin receptor) | IC50 [3] | Ki [3] | IC50 [4] | Ki [4] | IC50 [5] | IC50 (B2 bradykinin receptor) | IC50 [6] | Ki [6]

CC[C@@H](CO)NCCN[C@@H](CC)CO [ETHAMBUTOL]
Not Active: IC50 [1] | IC50 [2] | IC50 (Cytochrome P450 2C9) | Ki (Cytochrome P450 2C9) | IC50 (Calcitonin receptor) | IC50 [3] | Ki [3] | IC50 [4] | Ki [4] | IC50 [5] | IC50 (B2 bradykinin receptor) | IC50 [6] | Ki [6]

CC1(C)O[C@@H]2C[C@H]3[C@@H]4C[C@H](F)C5=CC(=O)C=C[C@]5(C)[C@H]4[C@@H](O)C[C@]3(C)[C@]2(C(=O)CO)O1 [FLUNISOLIDE]
Not Active: IC50 [1] | IC50 [2] | IC50 (Cytochrome P450 2C9) | Ki (Cytochrome P450 2C9) | IC50 (Calcitonin receptor) | IC50 [3] | Ki [3] | IC50 [4] | Ki [4] | IC50 [5] | IC50 (B2 bradykinin receptor) | IC50 [6] | Ki [6]

CC1(C)O[C@@H]2C[C@H]3[C@@H]4C[C@H](F)C5=CC(=O)C=C[C@]5(C)[C@@]4(F)[C@@H](O)C[C@]3(C)[C@]2(C(=O)CO)O1 [FLUOCINOLONE ACETONIDE]
Not Active: IC50 [1] | IC50 [2] | IC50 (Cytochrome P450 2C9) | Ki (Cytochrome P450 2C9) | IC50 (Calcitonin receptor) | IC50 [3] | Ki [3] | IC50 [4] | Ki [4] | IC50 [5] | IC50 (B2 bradykinin receptor) | IC50 [6] | Ki [6]
